This experiment addresses T1, BCL6 (Homo sapiens, UniProt P41182).
T1 construct: BTB domain
As to the kind of experiment: SPR (also HTRF BCL6-BTB/SMRT disruption). In kind it is binding. (Time-resolved FRET reads energy transfer from a long-lived donor to a nearby acceptor.)

In general, Kd refers to the equilibrium constant for the complex coming apart. Low values mean a tighter complex, high ones a looser complex. The compound `C[C@@H]1CN(c2ncc(F)c(Nc3ccc4oc(=O)ccc4c3)n2)C[C@H](C)N1` [WK369] yielded a Kd of 2240 nM.

Source of the values: article PMC10758095, “Selectively targeting BCL6 using a small molecule inhibitor is a potential therapeutic strategy for ovarian cancer” (International Journal of Biological Sciences, 2024).
